In the NIST ThermoML archive (doi:10.1021/je4010678):

Assay: xn = mol fraction of the nth substance listed
Conditions: 101 kPa, Liquid, Scientific instruments device model 9700

[I-].[K+] [potassium iodide] + C[S+](C)[O-]
Conditions | electrical conductivity [S/m]
293.15 K, x1 = 0.0001281 | 0.00573
293.15 K, x1 = 0.0001586 | 0.00687
293.15 K, x1 = 0.0003312 | 0.0147
293.15 K, x1 = 0.0006135 | 0.0267
293.15 K, x1 = 0.001095 | 0.0457
293.15 K, x1 = 0.002002 | 0.0778
293.15 K, x1 = 0.005707 | 0.183
293.15 K, x1 = 0.01 | 0.348
293.15 K, x1 = 0.0197 | 0.605
293.15 K, x1 = 0.04 | 0.8279
293.15 K, x1 = 0.0499 | 0.9283
293.15 K, x1 = 0.0707 | 0.9369
295.15 K, x1 = 0.0001281 | 0.00602
295.15 K, x1 = 0.0001586 | 0.00718
295.15 K, x1 = 0.0003312 | 0.0153
295.15 K, x1 = 0.0006135 | 0.0279
295.15 K, x1 = 0.001095 | 0.0475
295.15 K, x1 = 0.002002 | 0.0809
295.15 K, x1 = 0.005707 | 0.19
295.15 K, x1 = 0.01 | 0.362
295.15 K, x1 = 0.0197 | 0.632
295.15 K, x1 = 0.04 | 0.8651
295.15 K, x1 = 0.0499 | 0.9694
295.15 K, x1 = 0.0707 | 0.9785
297.15 K, x1 = 0.0001281 | 0.0063
297.15 K, x1 = 0.0001586 | 0.00749
297.15 K, x1 = 0.0003312 | 0.0159
297.15 K, x1 = 0.0006135 | 0.0291
297.15 K, x1 = 0.001095 | 0.0493
297.15 K, x1 = 0.002002 | 0.0841
297.15 K, x1 = 0.005707 | 0.198
297.15 K, x1 = 0.01 | 0.377
297.15 K, x1 = 0.0197 | 0.659
297.15 K, x1 = 0.04 | 0.9006
297.15 K, x1 = 0.0499 | 1.013
297.15 K, x1 = 0.0707 | 1.023
299.15 K, x1 = 0.0001281 | 0.00656
299.15 K, x1 = 0.0001586 | 0.00782
299.15 K, x1 = 0.0003312 | 0.0165
299.15 K, x1 = 0.0006135 | 0.0303
299.15 K, x1 = 0.001095 | 0.0511
299.15 K, x1 = 0.002002 | 0.0872
299.15 K, x1 = 0.005707 | 0.205
299.15 K, x1 = 0.01 | 0.392
299.15 K, x1 = 0.0197 | 0.686
299.15 K, x1 = 0.04 | 0.9366
299.15 K, x1 = 0.0499 | 1.051
299.15 K, x1 = 0.0707 | 1.067
301.15 K, x1 = 0.0001281 | 0.00683
301.15 K, x1 = 0.0001586 | 0.00814
301.15 K, x1 = 0.0003312 | 0.0171
301.15 K, x1 = 0.0006135 | 0.0315
301.15 K, x1 = 0.001095 | 0.0529
301.15 K, x1 = 0.002002 | 0.0904
301.15 K, x1 = 0.005707 | 0.213
301.15 K, x1 = 0.01 | 0.406
301.15 K, x1 = 0.0197 | 0.713
301.15 K, x1 = 0.04 | 0.9737
301.15 K, x1 = 0.0499 | 1.09
301.15 K, x1 = 0.0707 | 1.112
303.15 K, x1 = 0.0001281 | 0.00711
303.15 K, x1 = 0.0001586 | 0.00847
303.15 K, x1 = 0.0003312 | 0.0177
303.15 K, x1 = 0.0006135 | 0.0328
303.15 K, x1 = 0.001095 | 0.0547
303.15 K, x1 = 0.002002 | 0.0936
303.15 K, x1 = 0.005707 | 0.22
303.15 K, x1 = 0.01 | 0.421
303.15 K, x1 = 0.0197 | 0.741
303.15 K, x1 = 0.04 | 1.011
303.15 K, x1 = 0.0499 | 1.132
303.15 K, x1 = 0.0707 | 1.152
305.15 K, x1 = 0.0001281 | 0.00737
305.15 K, x1 = 0.0001586 | 0.0088
305.15 K, x1 = 0.0003312 | 0.0184
305.15 K, x1 = 0.0006135 | 0.034
305.15 K, x1 = 0.001095 | 0.0566
305.15 K, x1 = 0.002002 | 0.0969
305.15 K, x1 = 0.005707 | 0.228
305.15 K, x1 = 0.01 | 0.436
305.15 K, x1 = 0.0197 | 0.768
305.15 K, x1 = 0.04 | 1.047
305.15 K, x1 = 0.0499 | 1.169
305.15 K, x1 = 0.0707 | 1.199
307.15 K, x1 = 0.0001281 | 0.00763
307.15 K, x1 = 0.0001586 | 0.0092
307.15 K, x1 = 0.0003312 | 0.0191
307.15 K, x1 = 0.0006135 | 0.0352
307.15 K, x1 = 0.001095 | 0.0584
307.15 K, x1 = 0.002002 | 0.1
307.15 K, x1 = 0.005707 | 0.235
307.15 K, x1 = 0.01 | 0.451
307.15 K, x1 = 0.0197 | 0.794
307.15 K, x1 = 0.04 | 1.083
307.15 K, x1 = 0.0499 | 1.208
307.15 K, x1 = 0.0707 | 1.244
309.15 K, x1 = 0.0001281 | 0.0079
309.15 K, x1 = 0.0001586 | 0.00954
309.15 K, x1 = 0.0003312 | 0.0198
309.15 K, x1 = 0.0006135 | 0.0364
309.15 K, x1 = 0.001095 | 0.0603
309.15 K, x1 = 0.002002 | 0.103
309.15 K, x1 = 0.005707 | 0.243
309.15 K, x1 = 0.01 | 0.465
309.15 K, x1 = 0.0197 | 0.823
309.15 K, x1 = 0.04 | 1.124
309.15 K, x1 = 0.0499 | 1.246
309.15 K, x1 = 0.0707 | 1.286
311.15 K, x1 = 0.0001281 | 0.00818
311.15 K, x1 = 0.0001586 | 0.00991
311.15 K, x1 = 0.0003312 | 0.0205
311.15 K, x1 = 0.0006135 | 0.0376
311.15 K, x1 = 0.001095 | 0.0621
311.15 K, x1 = 0.002002 | 0.106
311.15 K, x1 = 0.005707 | 0.251
311.15 K, x1 = 0.01 | 0.48
311.15 K, x1 = 0.0197 | 0.849
311.15 K, x1 = 0.04 | 1.161
311.15 K, x1 = 0.0499 | 1.282
311.15 K, x1 = 0.0707 | 1.342
313.15 K, x1 = 0.0001281 | 0.00848
313.15 K, x1 = 0.0001586 | 0.0103
313.15 K, x1 = 0.0003312 | 0.0212
313.15 K, x1 = 0.0006135 | 0.0389
313.15 K, x1 = 0.001095 | 0.064
313.15 K, x1 = 0.002002 | 0.11
313.15 K, x1 = 0.005707 | 0.258
313.15 K, x1 = 0.01 | 0.494
313.15 K, x1 = 0.0197 | 0.874
313.15 K, x1 = 0.04 | 1.195
313.15 K, x1 = 0.0499 | 1.319
313.15 K, x1 = 0.0707 | 1.374
315.15 K, x1 = 0.0001281 | 0.00879
315.15 K, x1 = 0.0001586 | 0.0107
315.15 K, x1 = 0.0003312 | 0.022
315.15 K, x1 = 0.0006135 | 0.0401
315.15 K, x1 = 0.001095 | 0.0658
315.15 K, x1 = 0.002002 | 0.113
315.15 K, x1 = 0.005707 | 0.266
315.15 K, x1 = 0.01 | 0.508
315.15 K, x1 = 0.0197 | 0.9
315.15 K, x1 = 0.04 | 1.233
315.15 K, x1 = 0.0499 | 1.366
315.15 K, x1 = 0.0707 | 1.408
317.15 K, x1 = 0.0001281 | 0.00918
317.15 K, x1 = 0.0001586 | 0.011
317.15 K, x1 = 0.0003312 | 0.0227
317.15 K, x1 = 0.0006135 | 0.0413
317.15 K, x1 = 0.001095 | 0.0676
317.15 K, x1 = 0.002002 | 0.116
317.15 K, x1 = 0.005707 | 0.274
317.15 K, x1 = 0.01 | 0.522
317.15 K, x1 = 0.0197 | 0.922
317.15 K, x1 = 0.04 | 1.271
317.15 K, x1 = 0.0499 | 1.39
317.15 K, x1 = 0.0707 | 1.469
319.15 K, x1 = 0.0001281 | 0.00954
319.15 K, x1 = 0.0001586 | 0.0114
319.15 K, x1 = 0.0003312 | 0.0236
319.15 K, x1 = 0.0006135 | 0.0424
319.15 K, x1 = 0.001095 | 0.0694
319.15 K, x1 = 0.002002 | 0.119
319.15 K, x1 = 0.005707 | 0.281
319.15 K, x1 = 0.01 | 0.536
319.15 K, x1 = 0.0197 | 0.945
319.15 K, x1 = 0.04 | 1.309
319.15 K, x1 = 0.0499 | 1.434
319.15 K, x1 = 0.0707 | 1.527
321.15 K, x1 = 0.0001281 | 0.01
321.15 K, x1 = 0.0001586 | 0.0118
321.15 K, x1 = 0.0003312 | 0.0245
321.15 K, x1 = 0.0006135 | 0.0436
321.15 K, x1 = 0.001095 | 0.0712
321.15 K, x1 = 0.002002 | 0.122
321.15 K, x1 = 0.005707 | 0.289
321.15 K, x1 = 0.01 | 0.549
321.15 K, x1 = 0.0197 | 0.968
321.15 K, x1 = 0.04 | 1.344
321.15 K, x1 = 0.0499 | 1.466
321.15 K, x1 = 0.0707 | 1.567
323.15 K, x1 = 0.0001281 | 0.0104
323.15 K, x1 = 0.0001586 | 0.0122
323.15 K, x1 = 0.0003312 | 0.0254
323.15 K, x1 = 0.0006135 | 0.0447
323.15 K, x1 = 0.001095 | 0.0729
323.15 K, x1 = 0.002002 | 0.125
323.15 K, x1 = 0.005707 | 0.296
323.15 K, x1 = 0.01 | 0.563
323.15 K, x1 = 0.0197 | 0.988
323.15 K, x1 = 0.04 | 1.386
323.15 K, x1 = 0.0499 | 1.523
323.15 K, x1 = 0.0707 | 1.607
